# Reference: US20250101017A1, “SALT CRYSTAL FORM AND FREE BASE CRYSTAL FORM OF KINASE INHIBITOR” (CYTOSINLAB THERAPEUTICS CO., LTD., priority 2022, published 2025)
# Where two headings read alike, the source gives them in different places.
# How the values were obtained:
# Type in all cases: physicochemical
# [1] = Solid stability of crystal forms (80° C., light exposure, 25° C./60% RH, 40° C./75% RH); purity by liquid chromatography and XRPD of the solids
# Protocol: A certain amount of API and malate crystal form VII-A were weighed and added into a liquid phase vial, and a total of 9 parallels were prepared. The 9 parallels were placed separately in 80° C. (open); 25° C., 60% RH (open); 40° C., 75% RH (open); and light stability box closed). The stabilities under conditions of: 80° C. for one day, light exposure for 10 days, as well as 25° C., 60% RH and 40° C., 75% RH for one and two weeks were tested, and the XRPD of the solids were measured.
# A certain amount of crystal form B was weighed and added into a liquid phase vial, and a total of 9 parallels were prepared. 9 parallels were placed separately in 80° C.; 25° C., 60% RH, 40° C., 75% RH; and light stability boxe.
# [2] = Solubility at 37° C. in buffer solutions with different pH (about 10 mg in 1 ml, 2 h and 24 h); filtrate concentration and pH, XRPD of remaining solid; conditions: for solubility at 2 h / solubility at 24 h: read-out: Solubility at 37° C.
# Protocol: Approximately 10 mg of malate crystal form VII-A and free base Form A were weighed separately, and 1 ml of buffer solutions with different pH were added to make the solution supersaturated, and the mixtures were stirred at 37° C. for 2 h and 24 hours. The samples were filtered, and the filtrates were measured to determine the concentration and pH value, and the remaining solid was subjected to XRPD determination. The specific results were as follows: […]
# [3] = Dynamic moisture adsorption (DVS), hygroscopicity
# Protocol: DSV pattern determination method: Dynamic moisture adsorption was performed using Intrinsic DVS. In step mode, the sample is subjected to loop testing at a relative humidity of 0-90%. The sample is analyzed at 10% RH. The dm/dt is set to 0.002 to achieve equilibrium between the sample and the room environment.
# Approximately 250 mg of API was weighed and added into a 4 ml glass vial, and 2.5 ml of ethyl acetate was added. The mixture was stirred overnight under magnetic stirring at 50° C., cooled to room temperature, and then filtered, and the obtained solid was dried in vacuum overnight in a 50° C. oven. The resulting solid was free base crystal form Form B. The free base crystal form Form B was subjected to various characterization.
# [4] = Competitive pulping of API (free base Form A) and Form B in saturated DCM or water solution at 50° C., XRPD
# Protocol: A saturated solution of API (free base Form A) in DCM and water was prepared. Approximately 10 mg of API (free base Form A) and free base crystal form Form B was weighed respectively and added into a 4 ml glass bottle, and 1 mL of the saturated solution was added. […] The resulting solid was subjected to XRPD testing.
structure (smiles),measurement,setting,value
"CCc1nc2c(N)ncc(-c3ccc(N4CCC(N5CCN(CC)CC5)CC4)c(OC)c3)c2nc1NC1CCOCC1 [Form B, 3-ethyl-8-(4-(4-(4-ethylpiperazin-1-yl)piperidin-1-yl)-3-methoxyphenyl)-N2-(tetrahydro-2H-pyran-4-yl) pyridino [3,4-b]pyrazine-2,5-diamine]",Crystal form,"[1]; 25° C., 60% RH, 1 week",Unchanged
same,Degradation,"[1]; 25° C., 60% RH, 1 week",0.00%
same,Purity,"[1]; 25° C., 60% RH, 1 week",97.69%
same,Crystal form,"[1]; 25° C., 60% RH, 2 weeks",Unchanged
same,Degradation,"[1]; 25° C., 60% RH, 2 weeks",0.00%
same,Purity,"[1]; 25° C., 60% RH, 2 weeks",97.67%
same,Crystal form,"[1]; 40° C., 75% RH, 1 week",Unchanged
same,Degradation,"[1]; 40° C., 75% RH, 1 week",0.00%
same,Purity,"[1]; 40° C., 75% RH, 1 week",97.70%
same,Crystal form,"[1]; 40° C., 75% RH, 2 weeks",Unchanged
same,Degradation,"[1]; 40° C., 75% RH, 2 weeks",0.01%
same,Purity,"[1]; 40° C., 75% RH, 2 weeks",97.66%
same,physical and chemical stability,"[1]; 80° C. 1 day, light 10 days, 25° C./60% RH and 40° C./75% RH 1 and 2 weeks",good physical and chemical stability
same,Crystal form,"[1]; 80° C., 1 day",Unchanged
same,Degradation,"[1]; 80° C., 1 day",0.17%
same,Purity,"[1]; 80° C., 1 day",97.50%
same,Crystal form,"[1]; Light control, 10 days",Unchanged
same,Degradation,"[1]; Light control, 10 days",0.00%
same,Purity,"[1]; Light control, 10 days",97.67%
same,Crystal form,"[1]; Light exposure, 10 days",Unchanged
same,Degradation,"[1]; Light exposure, 10 days",0.04%
same,Purity,"[1]; Light exposure, 10 days",97.63%
same,Purity,[1]; initial,97.67%
same,solubility compared to API,"[2]; 37° C., pH 6.8, pH 7.4, FaSSIF and water",improved compared to API
same,solubility at 2 h,"[2]; FaSSIF, 37 °C, fassif, thermodynamic from solid, medium FaSSIF, 2 h",1190 µg/mL
same,solubility at 24 h,"[2]; FaSSIF, 37 °C, fassif, thermodynamic from solid, medium FaSSIF, 24 h",1400 µg/mL
same,solubility at 2 h,"[2]; FeSSIF, 37 °C, fessif, thermodynamic from solid, medium FeSSIF, 2 h",> 10000 µg/mL
same,solubility at 24 h,"[2]; FeSSIF, 37 °C, fessif, thermodynamic from solid, medium FeSSIF, 24 h",> 10000 µg/mL
same,solubility at 2 h,"[2]; SGF, 37 °C, simulated gastric fluid, thermodynamic from solid, medium SGF, 2 h",> 10000 µg/mL
same,solubility at 24 h,"[2]; SGF, 37 °C, simulated gastric fluid, thermodynamic from solid, medium SGF, 24 h",> 10000 µg/mL
same,solubility at 2 h,"[2]; buffer solution pH 6.8, 37 °C, pH 6.8, aqueous buffer, thermodynamic from solid, medium pH 6.8, 2 h",310 µg/mL
same,solubility at 24 h,"[2]; buffer solution pH 6.8, 37 °C, pH 6.8, aqueous buffer, thermodynamic from solid, medium pH 6.8, 24 h",250 µg/mL
same,solubility,"[2]; buffer solutions: pH 1.2, pH 3.0, pH 4.5, FeSSIF, SGF, 37 °C, aqueous buffer, thermodynamic from solid, 37° C., pH 1.2, pH 3.0, pH 4.5, FeSSIF, and SGF buffer",> 10000 µg/mL
same,Crystal form,"[2]; medium FaSSIF, XRPD of remaining solid",Form B
same,pH (24 h),"[2]; medium FaSSIF, filtrate, 37° C.",6.755
same,pH (24 h),"[2]; medium FeSSIF, filtrate, 37° C.",5.724
same,Solubility at 37° C.,"[2]; medium H2O, 24 h",17.9 µg/mL
same,Crystal form,"[2]; medium H2O, XRPD of remaining solid",Form B
same,pH (24 h),"[2]; medium H2O, filtrate, 37° C.",7.197
same,pH (24 h),"[2]; medium SGF, filtrate, 37° C.",1.910
same,Solubility at 37° C.,"[2]; medium pH 1.2, 2 h",>10000 µg/mL
same,Solubility at 37° C.,"[2]; medium pH 1.2, 24 h",>10000 µg/mL
same,pH (24 h),"[2]; medium pH 1.2, filtrate, 37° C.",1.925
same,Solubility at 37° C.,"[2]; medium pH 3.0, 2 h",>10000 µg/mL
same,Solubility at 37° C.,"[2]; medium pH 3.0, 24 h",>10000 µg/mL
same,pH (24 h),"[2]; medium pH 3.0, filtrate, 37° C.",4.892
same,Solubility at 37° C.,"[2]; medium pH 4.5, 2 h",>10000 µg/mL
same,Solubility at 37° C.,"[2]; medium pH 4.5, 24 h",>10000 µg/mL
same,pH (24 h),"[2]; medium pH 4.5, filtrate, 37° C.",6.062
same,Crystal form,"[2]; medium pH 6.8, XRPD of remaining solid",Form B
same,pH (24 h),"[2]; medium pH 6.8, filtrate, 37° C.",6.813
same,Solubility at 37° C.,"[2]; medium pH 7.4, 2 h",47.2 µg/mL
same,Solubility at 37° C.,"[2]; medium pH 7.4, 24 h",39.9 µg/mL
same,Crystal form,"[2]; medium pH 7.4, XRPD of remaining solid",Form B
same,pH (24 h),"[2]; medium pH 7.4, filtrate, 37° C.",7.311
same,crystal form in the buffers,"[2]; remaining solids, XRPD",remained unchanged
same,solubility at 2 h,"[2]; water, 37 °C, water, thermodynamic from solid, medium H2O, 2 h",39.5 µg/mL
same,crystal form before and after DVS testing,[3],did not change
same,solid crystal form obtained by competitive pulping,"[4]; API and Form B together in DCM, 50° C., 3 days, XRPD",tended to approach Form L
same,appearance after competitive pulping,"[4]; API and Form B together in DCM, after 5 days of beating",became oily
same,crystal form obtained by competitive pulping,"[4]; API and Form B together in water, 50° C., 3 days, XRPD",a mixture of Form B and API
same,XRPD results,"[4]; competitive pulping of API and Form B, DCM, 50° C., 3 days",Form K
